From patent US20140045890A1, “NOVEL COMPOUNDS” (SYNGENTA PARTICIPATIONS AG, priority 2011, published 2014)

Key:
[1] = tested on: Blumeria qraminis f. sp. tritici (Erysiphe qraminis f. sp. tritici); experiment: Blumeria graminis f. sp. tritici / wheat / leaf disc preventative (powdery mildew on wheat); assay type: in vivo; settings: foliar, wheat leaf segments cv. Kanzler, inoculated 1 day after application, assessed 6-8 days after application, read-out: inhibit fungal infestation (percent disease control compared to untreated)
Pythium ultimum = Pythium ultimum / liquid culture (seedling damping off); assay type: cell-based; settings: Globisporangium ultimum, liquid culture in PDB, 24° C., 2-3 days after application, read-out: inhibit fungal infestation (inhibition of growth determined photometrically)
Plasmopara viticola = Plasmopara viticola / grape / leaf disc preventative; assay type: in vivo; settings: foliar, grape vine leaf disks, inoculated 1 day after application, assessed 6-8 days after application, read-out: inhibit fungal infestation (percent disease control compared to untreated)
Phytophthora infestans = experiment: whole plant or invertebrate; assay type: in vivo; settings: in Solanum lycopersicum, foliar, read-out: inhibit fungal infestation (percent disease control compared to untreated)

Row | SMILES | inhibition at 200 ppm [1] [%] | inhibition at 200 ppm (Pythium ultimum) [%] | inhibition at 200 ppm (Plasmopara viticola) [%] | inhibition at 200 ppm (Phytophthora infestans) [%]
1 | C#Cc1cnc2c(C)cc(OC(SC)C(=O)NC(C)(C)c3cc(CC)on3)cc2c1 (stereo not drawn) [Compound 94] | ≥ 80 | ≥ 80 | ≥ 80 | ≥ 80
2 | CSC(Oc1ccc2ncc(I)cc2c1)C(=O)NC(C)(C)c1cc(C)on1 (stereo not drawn) [Compound 109] | ≥ 80 | ≥ 80 | ≥ 80 | ≥ 80
3 | C#Cc1cnc2c(C)cc(OC(SC)C(=O)NC(C)(C)c3cc(C)on3)cc2c1 (stereo not drawn) [Compound 67] | ≥ 80 | ≥ 80 | ≥ 80 | ≥ 80
4 | C#Cc1cnc2ccc(OC(SC)C(=O)NCc3ncc(C)s3)cc2c1 (stereo not drawn) [Compound 79] | ≥ 80 | ≥ 80 |  | 
5 | C#Cc1cnc2c(F)cc(OC(SC)C(=O)NC(C)(C)c3cc(C)on3)cc2c1 (stereo not drawn) [Compound 69] | ≥ 80 | ≥ 80 | ≥ 80 | ≥ 80
6 | C#Cc1cnc2ccc(OC(SC)C(=O)NC(C)(C)c3cc(COC)on3)cc2c1 (stereo not drawn) [Compound 52] | ≥ 80 | ≥ 80 | ≥ 80 | ≥ 80
7 | C#Cc1cnc2ccc(OC(SC)C(=O)NC(C)(C)c3cc(CC)on3)cc2c1 (stereo not drawn) [Compound 82] | ≥ 80 | ≥ 80 | ≥ 80 | ≥ 80
8 | C#Cc1cnc2c(F)cc(OC(SC)C(=O)NC(C)(C)c3cc(C(F)(F)F)on3)cc2c1 (stereo not drawn) [Compound 91] |  |  | ≥ 80 | ≥ 80
9 | C#Cc1cnc2c(Cl)cc(OC(SC)C(=O)NC(C)(C)c3nocc3C)cc2c1 (stereo not drawn) [Compound 76] |  | ≥ 80 | ≥ 80 | ≥ 80
10 | C#Cc1cnc2c(C)cc(OC(SC)C(=O)NC(C)(C)c3ccncc3)cc2c1 (stereo not drawn) [Compound 36] |  | ≥ 80 | ≥ 80 | ≥ 80
11 | C#Cc1cnc2c(Cl)cc(OC(SC)C(=O)NC(C)(C)c3cc(C(F)(F)F)on3)cc2c1 (stereo not drawn) [Compound 99] |  |  | ≥ 80 | 
12 | CSC(Oc1cc(C)c2ncc(I)cc2c1)C(=O)NCc1cccnc1 (stereo not drawn) [Compound 125] |  | ≥ 80 |  | 
13 | C#Cc1cnc2c(C)cc(OC(SC)C(=O)NC3(c4ccccn4)CC3)cc2c1 (stereo not drawn) [Compound 38] |  | ≥ 80 | ≥ 80 | 
14 | C#Cc1cnc2ccc(OC(SC)C(=O)NC(C)(C)c3noc4ccccc34)cc2c1 (stereo not drawn) [Compound 50] |  | ≥ 80 | ≥ 80 | 
15 | C#Cc1cnc2c(F)cc(OC(SC)C(=O)NCc3ncc(C)s3)cc2c1 (stereo not drawn) [Compound 122] | ≥ 80 | ≥ 80 |  | 
16 | C#Cc1cnc2c(C)cc(OC(SC)C(=O)NC(C)(C)c3cc(Cl)on3)cc2c1 (stereo not drawn) [Compound 72] |  | ≥ 80 | ≥ 80 | ≥ 80
17 | C#Cc1cnc2ccc(OC(SC)C(=O)NC(C)(C)c3nscc3C(=O)OC)cc2c1 (stereo not drawn) [Compound 61] |  | ≥ 80 | ≥ 80 | 
18 | C#Cc1cnc2cc(F)c(OC(SC)C(=O)NC(C)(C)c3cc(C)on3)cc2c1 (stereo not drawn) [Compound 70] |  |  |  | ≥ 80
19 | C#Cc1cnc2ccc(OC(SC)C(=O)NC(C)(C)c3csc([Si](C)(C)C)n3)cc2c1 (stereo not drawn) [Compound 58] |  | ≥ 80 |  | 
20 | C#Cc1cnc2ccc(OC(SC)C(=O)NC(C)(C)c3nocc3I)cc2c1 (stereo not drawn) [Compound 49] |  | ≥ 80 | ≥ 80 | ≥ 80
21 | CCc1cc(C(C)(C)NC(=O)C(Oc2ccc3ncc(SC)cc3c2)SC)no1 (stereo not drawn) [Compound 103] |  | ≥ 80 | ≥ 80 | 
22 | C#Cc1cnc2ccc(OC(SC)C(=O)NC(C)(C)c3cc(C(=O)OC)on3)cc2c1 (stereo not drawn) [Compound 40] |  | ≥ 80 |  | ≥ 80
23 | C#Cc1cnc2c(Cl)cc(OC(SC)C(=O)NCc3nc(C)cs3)cc2c1 (stereo not drawn) [Compound 120] | ≥ 80 | ≥ 80 | ≥ 80 | 
24 | CSc1cnc2ccc(OC(SC)C(=O)NC(C)(C)c3nocc3C)cc2c1 (stereo not drawn) [Compound 74] |  | ≥ 80 |  | 
25 | C#Cc1cnc2ccc(OC(SC)C(=O)NC(C)(C)c3noc(C)c3Cl)cc2c1 (stereo not drawn) [Compound 54] | ≥ 80 | ≥ 80 | ≥ 80 | ≥ 80
26 | C#Cc1cnc2c(F)cc(OC(SC)C(=O)NC(C)(C)c3nocc3C)cc2c1 (stereo not drawn) [Compound 77] | ≥ 80 | ≥ 80 | ≥ 80 | ≥ 80
27 | CSC(Oc1cc(C)c2ncc(I)cc2c1)C(=O)NCc1ccc(Cl)nc1 (stereo not drawn) [Compound 127] | ≥ 80 |  |  | 
